From ChEMBL document CHEMBL1140181, “Tyrianthinic acids from Ipomoea tyrianthina and their antimycobacterial activity, cytotoxicity, and effects on the central nervous system” (2008)
Converted amounts (≈) assume the structure as drawn. The source made the active and inactive calls. No cut-off for these calls is given here.

How the values were obtained:
[1] = test system: Mycobacterium tuberculosis; assay: Antimicrobial activity against Mycobacterium tuberculosis H37Rv ATTC 27294 by alamar blue assay; type: functional
[2] = test system: KB; assay: Cytotoxicity against human KB cells; type: functional; settings: read-out: ED50 (the source's name)
[3] = test system: HCT-15; assay: Cytotoxicity against human HCT15 cells; type: functional; settings: read-out: ED50 (the source's name)
[4] = Cytotoxicity against human UISO-SQC-1 cells; type: functional; settings: UISO-SQC1, read-out: ED50 (the source's name)
[5] = test system: OVCAR-5; assay: Cytotoxicity against human OVCAR5 cells; type: functional; settings: read-out: ED50 (the source's name)
[6] = test system: Mus musculus; assay: Anticonvulsant activity in mouse assessed as effect on pentobarbital-induced increase in hypnosis latency at 10 mg/kg, ip; type: functional, organism-based; parameters: dose 10 mg/kg
[7] = test system: Mus musculus; assay: Anticonvulsant activity in mouse assessed as protection of pentylenetetrazole-induced seizure at 40 mg/kg, ip; type: functional; settings: route intraperitoneal
[8] = organism: Mus musculus; assay: Increase in GABA level in mouse brain at 4 ug/mL after 90 seconds; type: functional, organism-based

Row | SMILES | MIC [1] [µg/mL] | EC50 [2] [µg/mL] | EC50 [3] [µg/mL] | EC50 [4] [µg/mL] | EC50 [5] [µg/mL] | Activity [6] | Activity [7] [%] | Activity [8]
1 | C/C=C(\C)C(=O)O[C@H]1[C@H](O)[C@@H](O)[C@H](O[C@@H]2[C@@H](O)[C@@H](OC(=O)C(C)CC)[C@H](O[C@H]3[C@H](O[C@H]4[C@H](O[C@H](CCCCC)CCCCCCCCCC(=O)O)O[C@H](C)[C@@H](O)[C@@H]4O)O[C@H](CO)[C@@H](O)[C@@H]3O)O[C@H]2C)O[C@@H]1C (stereo not given in full) [THYRIANTHINIC ACID II] | 25 (≈ 24.1 µM) | 2.8 (≈ 2.69 µM) | > 5 | > 5 | > 5 | Active | 70 | 
2 | C/C=C(\C)C(=O)O[C@H]1[C@@H]2O[C@H]3[C@H](O[C@H]4[C@H](OC(CCCCC)CCCCCCCCCC(=O)O[C@@H]1[C@H](O[C@H]1O[C@H](C)[C@H](O)[C@@H](O)[C@H]1O)[C@@H](C)O2)O[C@H](C)[C@H](O)[C@H]4O)O[C@H](CO)[C@H](O)[C@H]3O (stereo not given in full) [TYRIANTHIN 8] | 25 (≈ 26.7 µM) | 2.2 (≈ 2.35 µM) | > 5 | > 5 | > 5 | Active | 70 | Active
3 | CCCCCC1CCCCCCCCCC(=O)O[C@H]2[C@@H](OC(=O)CC)[C@H](O[C@H]3[C@H](O[C@H]4[C@H](O1)O[C@H](C)[C@H](O)[C@H]4O)O[C@H](CO)[C@H](O)[C@H]3O)O[C@H](C)[C@H]2O[C@H]1O[C@H](C)[C@H](O)[C@@H](O)[C@H]1O (stereo not given in full) [TYRIANTHIN 9] | 25 (≈ 27.4 µM) | 2.5 (≈ 2.74 µM) | > 5 | > 5 | > 5 | Active | 70 | Active
4 | CCCCC[C@H](CCCCCCCCCC(=O)O)O[C@@H]1O[C@H](C)[C@@H](O)[C@H](O)[C@H]1O[C@@H]1O[C@H](CO)[C@@H](O)[C@H](O)[C@H]1O[C@@H]1O[C@@H](C)[C@H](O[C@@H]2O[C@H](C)[C@@H](OC(=O)C(C)C(C)O)[C@H](O)[C@H]2O)[C@@H](O)[C@H]1OC(=O)C(C)CC (stereo not given in full) [THYRIANTHINIC ACID I] | 25 (≈ 23.6 µM) | 2.6 (≈ 2.46 µM) | > 5 | > 5 | > 5 | Active | 70 | 
